Results on 65 compounds are retold here after patent publication US9199947B2, “Biaryl-propionic acid derivatives and their use as pharmaceuticals” (SANOFI, priority 2013, dated 2015).

By IC50 is commonly meant the concentration at which inhibition is half-maximal.

Sequence of Recombinant human cathepsin A (P10619 29-326): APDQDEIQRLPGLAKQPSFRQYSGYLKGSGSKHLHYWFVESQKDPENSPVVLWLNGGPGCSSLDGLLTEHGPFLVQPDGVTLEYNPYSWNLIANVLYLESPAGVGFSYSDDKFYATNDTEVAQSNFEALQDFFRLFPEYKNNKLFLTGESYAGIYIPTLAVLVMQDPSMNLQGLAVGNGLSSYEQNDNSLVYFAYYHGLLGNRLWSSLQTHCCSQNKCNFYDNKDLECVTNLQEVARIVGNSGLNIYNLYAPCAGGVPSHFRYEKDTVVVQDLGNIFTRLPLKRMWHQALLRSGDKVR
Sequence of Recombinant human cathepsin A (P10619 327-480): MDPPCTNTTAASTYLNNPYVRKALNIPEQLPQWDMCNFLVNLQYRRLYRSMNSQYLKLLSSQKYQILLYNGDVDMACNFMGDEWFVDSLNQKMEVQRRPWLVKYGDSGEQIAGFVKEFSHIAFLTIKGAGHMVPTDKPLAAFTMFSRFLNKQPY

The target of one assay is Recombinant human cathepsin A (Homo sapiens (Human), UniProt P10619). Kind of assay: Cathepsin A inhibitory activity (Bodipy FL-labeled bradykinin substrate, microfluidic capillary electrophoresis). In kind it is biochemical. The following applies: Cathepsin A inhibitory activity, read-out: CATHA IC50. On the procedure:
Pharmacological Tests a) Cathepsin a Inhibitory Activity
Recombinant human cathepsin A (residues 29-480, with a C-terminal 10-His tag; R&D Systems, #1049-SE) was proteolytically activated with recombinant human cathepsin L (R&D Systems, #952-CY). Briefly, cathepsin A was incubated at 10 μg/ml with cathepsin L at 1 μg/ml in activation buffer (25 mM 2-(morpholin-4-yl)-ethanesulfonic acid (MES), pH 6.0, containing 5 mM dithiothreitol (DTT)) for 15 min at 37° C.
The activated cathepsin A was diluted in assay buffer (25 mM MES, pH 5.5, containing 5 mM DTT) and mixed with the test compound (dissolved in assay buffer containing (v/v) 3% DMSO) or, in the control experiments, with the vehicle in a multiple assay plate. After incubation for 15 min at room temperature, as substrate then bradykinin carrying an N-terminal® Bodipy FL (4,4-difluoro-5,7-dimethyl-4-bora-3a,4a-diaza-s-indacene-3-propionyl) label (JPT Peptide Technologies GmbH; dissolved in assay buffer) was added to the mixture. The final concentration of cathepsin A was 833 ng/ml and the final concentration of labeled bradykinin 2 μM. After incubation for 15 min at room temperature the reaction was stopped by the addition of stop buffer (130 mM 2-(4-(2-hydroxy-ethyl)-piperazin-1-yl)-ethanesulfonic acid, pH 7.4, containing (v/v) 0.013%° Triton X-100, 0.13% Coating Reagent 3 (Caliper Life Sciences), 6.5% DMSO and 20 μM ebelactone B (Sigma, #E0886)).
Uncleaved substrate and product were then separated by a microfluidic capillary electrophoresis on a LabChip® 3000 Drug Discovery System (12-Sipper-Chip; Caliper Life Sciences) and quantified by determination of the respective peak areas. Substrate turnover was calculated by dividing product peak area by the sum of substrate and product peak areas, and the enzyme activity and the inhibitory effect of the test compound thus quantified.
As for `Cc1cnc(C(CC(=O)O)c2cc(Cl)cc(-c3ccccc3C(=O)N(C)C)c2)s1` (centres unmarked) [compound 116], the IC50 worked out at 1440 nM.

Regarding `Cc1cnc(C(CC(=O)O)c2cc(Cl)cc(-c3ccncc3F)c2)s1` (centres unmarked) [compound 117], the concentration for half-maximal inhibition (IC50) turned out to be 1560 nM. The same measure, in the same setting: with `Cc1ccc(F)c(-c2cc(F)cc(C(CC(=O)O)c3ncc(C)s3)c2)c1` (centres unmarked) [compound 118] the figure was 437 nM; with `Cc1cccc(-c2cc(F)cc(C(CC(=O)O)c3ncco3)c2)c1F` (centres unmarked) [compound 119], 488 nM.

In the case of `Cc1cnc(C(CC(=O)O)c2cc(F)cc(-c3cc(F)ccc3F)c2)s1` (centres unmarked) [compound 120], the IC50 came to 649 nM. Turning to `CC(=O)c1ccccc1-c1cc(F)cc(C(CC(=O)O)c2ncc(C)s2)c1` (centres unmarked) [compound 121], the IC50 was found to be 707 nM. `Cc1cnc(C(CC(=O)O)c2cc(F)cc(-c3ccccc3F)c2)s1` (centres unmarked) [compound 122]: the IC50 came to 780 nM. Regarding `Cc1ccc(F)c(-c2cc(F)cc(C(CC(=O)O)c3ncco3)c2)c1` (centres unmarked) [compound 123], the IC50 is 903 nM.

Regarding `Cc1cnc(C(CC(=O)O)c2cc(F)cc(-c3cccc(OC(F)(F)F)c3)c2)s1` (centres unmarked) [compound 124], the IC50 amounted to 975 nM. With `Cc1ccc(-c2cc(F)cc(C(CC(=O)O)c3ncco3)c2)c(F)c1` (centres unmarked) [compound 125], the concentration for half-maximal inhibition (IC50) amounted to 1160 nM. Consider `Cc1cnc(C(CC(=O)O)c2cc(F)cc(-c3ccccc3C(N)=O)c2)s1` (centres unmarked) [compound 127], for which the IC50 amounted to 1230 nM. The same measure, in the same setting: as for `Cc1cnc(C(CC(=O)O)c2cc(F)cc(-c3cccnc3)c2)s1` (centres unmarked) [compound 128], the figure is 1330 nM; as for `O=C(O)CC(c1cc(F)cc(-c2cccc(F)c2F)c1)c1ncco1` (centres unmarked) [compound 129], 1450 nM. On the same count and under the same terms, with `O=C(O)CC(c1cc(F)cc(-c2cc(F)ccc2F)c1)c1ncco1` (centres unmarked) [compound 130] the figure was 1490 nM; with `Cc1cnc(C(CC(=O)O)c2cc(F)cc(-c3ccccc3C#N)c2)s1` (centres unmarked) [compound 131], 1690 nM; with `Cc1cnc(C(CC(=O)O)c2cc(F)cc(-c3ccccc3C(=O)N(C)C)c2)s1` (centres unmarked) [compound 132], 1700 nM. The same measure, in the same setting: as for `O=C(O)CC(c1cc(F)cc(-c2ccccc2F)c1)c1ncco1` (centres unmarked) [compound 133], the figure is 1720 nM. With `NC(=O)c1ccccc1-c1cc(F)cc(C(CC(=O)O)c2ncco2)c1` (centres unmarked) [compound 134], the IC50 came to 1770 nM.

`CC(=O)c1ccccc1-c1cc(F)cc(C(CC(=O)O)c2ncco2)c1` (centres unmarked) [compound 136]: the IC50 came out at 2030 nM. On the same count and under the same terms, with `N#Cc1ccccc1-c1cc(F)cc(C(CC(=O)O)c2ncco2)c1` (centres unmarked) [compound 137] the figure was 2030 nM; with `O=C(O)CC(c1cc(F)cc(-c2cccc(OC(F)(F)F)c2)c1)c1ncco1` (centres unmarked) [compound 138], 2280 nM; with `Cc1cnc(C(CC(=O)O)c2cc(F)cc(-c3ccncc3)c2)s1` (centres unmarked) [compound 139], 8650 nM. On the same count and under the same terms, as for `CC(=O)c1ccccc1-c1cccc(C(CC(=O)O)c2nnc(C)o2)c1` (centres unmarked) [compound 145], the figure is 1720 nM. Same read-out and setting: as for `Cc1nnc(C(CC(=O)O)c2cccc(-c3ccccc3C#N)c2)o1` (centres unmarked) [compound 146], the figure is 4740 nM; as for `Cc1nnc(C(CC(=O)O)c2cccc(-c3cccnc3)c2)o1` (centres unmarked) [compound 147], 6710 nM; as for `Cc1nnc(C(CC(=O)O)c2cccc(-c3ccncc3)c2)o1` (centres unmarked) [compound 148], 20600 nM.

In the case of `Cc1nnc(C(CC(=O)O)c2cccc(-c3ccccc3)c2)o1` (centres unmarked) [compound 167], the IC50 came out at 935 nM.

With `COc1ccc(-c2ccccc2)cc1C(CC(=O)O)c1nccs1` (centres unmarked) [compound 168], the IC50 was found to be 4940 nM.

The assay is the same for the next values; noted with them: read-out: CATHA IC50.
As for `COc1ccc(-c2ccc(Cl)cc2)cc1C(CC(=O)O)c1ncc(C)s1` (centres unmarked) [compound 76], the IC50 came out at 3200 nM.

Regarding `COc1ccc(-c2ccc(OC)c(C(CC(=O)O)c3ncc(C)s3)c2)c(F)c1` (centres unmarked) [compound 77], the IC50 was 3270 nM. On the same count and under the same terms, with `COc1ccc(-c2ccccc2C)cc1C(CC(=O)O)c1ncc(C)s1` (centres unmarked) [compound 78] the figure was 3280 nM; with `COc1ccc(-c2ccc(Cl)cc2F)cc1C(CC(=O)O)c1ncc(C)s1` (centres unmarked) [compound 79], 3570 nM; with `COc1ccc(-c2ccc(F)cc2C)cc1C(CC(=O)O)c1ncc(C)s1` (centres unmarked) [compound 80], 3730 nM. With `COc1ccc(-c2cccc(Cl)c2)cc1C(CC(=O)O)c1ncc(C)s1` (centres unmarked) [compound 81], the IC50 turned out to be 3740 nM.

On to `COc1ccc(-c2cccc(F)c2Cl)cc1C(CC(=O)O)c1ncc(C)s1` (centres unmarked) [compound 82], for which the IC50 was determined as 4010 nM. On the same count and under the same terms, as for `COc1ccc(-c2ccc(C(F)(F)F)cc2)cc1C(CC(=O)O)c1ncc(C)s1` (centres unmarked) [compound 83], the figure is 4380 nM. Still for that read-out and setting: with `COc1ccc(-c2ccc(F)cc2)cc1C(CC(=O)O)c1ncc(C)s1` (centres unmarked) [compound 84] the figure was 4390 nM; with `COc1cccc(-c2ccc(OC)c(C(CC(=O)O)c3ncc(C)s3)c2)c1` (centres unmarked) [compound 85], 5560 nM.

Take `COc1ccc(-c2cc(C)ccc2F)cc1C(CC(=O)O)c1ncc(C)s1` (centres unmarked) [compound 86]: the IC50 was found to be 5680 nM.

In the case of `COc1ccc(-c2ccc(F)cc2Cl)cc1C(CC(=O)O)c1ncc(C)s1` (centres unmarked) [compound 87], the IC50 is 6360 nM. On the same count and under the same terms, with `COc1ccc(-c2ccccc2Cl)cc1C(CC(=O)O)c1ncc(C)s1` (centres unmarked) [compound 88] the figure was 6690 nM; with `COc1ccc(-c2ccc(OC(F)(F)F)cc2)cc1C(CC(=O)O)c1ncc(C)s1` (centres unmarked) [compound 89], 6730 nM; with `COc1ccc(-c2cccc(C)c2)cc1C(CC(=O)O)c1ncc(C)s1` (centres unmarked) [compound 90], 7120 nM. Same read-out and setting: as for `COc1ccc(-c2cccc(C(F)(F)F)c2)cc1C(CC(=O)O)c1ncc(C)s1` (centres unmarked) [compound 91], the figure is 7770 nM; as for `COc1ccc(-c2ccc(OC)c(C(CC(=O)O)c3ncc(C)s3)c2)cc1` (centres unmarked) [compound 92], 7810 nM. Same read-out and setting: as for `COc1ccc(-c2ccc(C#N)cc2)cc1C(CC(=O)O)c1ncc(C)s1` (centres unmarked) [compound 93], the figure is 8800 nM. Turning to `COc1ccc(-c2cccc(C#N)c2)cc1C(CC(=O)O)c1ncc(C)s1` (centres unmarked) [compound 94], the IC50 worked out at 9260 nM.

Consider `COc1ccc(-c2ccccc2C(F)(F)F)cc1C(CC(=O)O)c1ncc(C)s1` (centres unmarked) [compound 95], for which the IC50 is 10200 nM.

`COc1ccc(-c2cccc(OC(F)(F)F)c2)cc1C(CC(=O)O)c1ncc(C)s1` (centres unmarked) [compound 96]: the IC50 was determined as 18100 nM.

`COc1ccc(-c2ccccc2C(N)=O)cc1C(CC(=O)O)c1ncc(C)s1` (centres unmarked) [compound 97]: the IC50 turned out to be 19300 nM. Take `Cc1cnc(C(CC(=O)O)c2cc(Cl)cc(-c3cc(F)ccc3F)c2)s1` (centres unmarked) [compound 101]: the half-maximal inhibitory concentration (IC50) was found to be 136 nM.

In the case of `Cc1cnc(C(CC(=O)O)c2cc(Cl)cc(-c3cccc(C)c3F)c2)s1` (centres unmarked) [compound 102], the IC50 came out at 184 nM. `Cc1cnc(C(CC(=O)O)c2cc(Cl)cc(-c3cccc(Cl)c3F)c2)s1` (centres unmarked) [compound 103]: the IC50 amounted to 197 nM. On to `Cc1cnc(C(CC(=O)O)c2cc(Cl)cc(-c3ccccc3OC(F)(F)F)c2)s1` (centres unmarked) [compound 104], for which the IC50 stood at 221 nM. Take `Cc1ccc(F)c(-c2cc(Cl)cc(C(CC(=O)O)c3ncc(C)s3)c2)c1` (centres unmarked) [compound 105]: the IC50 came out at 232 nM. Same read-out and setting: as for `CC(=O)c1ccccc1-c1cc(Cl)cc(C(CC(=O)O)c2ncc(C)s2)c1` (centres unmarked) [compound 106], the figure is 250 nM; as for `Cc1cnc(C(CC(=O)O)c2cc(Cl)cc(-c3ccccc3F)c2)s1` (centres unmarked) [compound 107], 328 nM.

For the compound `COc1cc(F)c(-c2cc(Cl)cc(C(CC(=O)O)c3ncc(C)s3)c2)c(F)c1` (centres unmarked) [compound 108], the 50% inhibitory concentration (IC50) turned out to be 335 nM. Still for that read-out and setting: as for `Cc1cnc(C(CC(=O)O)c2cc(Cl)cc(-c3cccc(F)c3F)c2)s1` (centres unmarked) [compound 109], the figure is 354 nM. As for `Cc1cnc(C(CC(=O)O)c2cc(Cl)cc(-c3ccccc3C(N)=O)c2)s1` (centres unmarked) [compound 110], the IC50 worked out at 404 nM. In the case of `Cc1cnc(C(CC(=O)O)c2cc(Cl)cc(-c3cccc(OC(F)(F)F)c3)c2)s1` (centres unmarked) [compound 111], the IC50 stood at 406 nM.

Regarding `Cc1cnc(C(CC(=O)O)c2cc(Cl)cc(-c3ccncc3)c2)s1` (centres unmarked) [compound 112], the concentration for half-maximal inhibition (IC50) came out at 459 nM.

In the case of `COc1ccc(-c2cc(Cl)cc(C(CC(=O)O)c3ncc(C)s3)c2)c(F)c1` (centres unmarked) [compound 113], the IC50 came out at 563 nM. Still for that read-out and setting: as for `Cc1cnc(C(CC(=O)O)c2cc(Cl)cc(-c3ccccc3C#N)c2)s1` (centres unmarked) [compound 114], the figure is 567 nM; as for `Cc1cnc(C(CC(=O)O)c2cc(Cl)cc(-c3cccnc3)c2)s1` (centres unmarked) [compound 115], 1060 nM.
